Source: patent US6858217B2, “Stabilization of terpenoids in cosmetic compositions” (Unilever Home & Personal Care USA division of Conopco, Inc., priority 2002, dated 2005)

Columns and labels:
[1] = Storage stability of limonene in skin lotion, GC/HS; conditions: for initial GC/HS: skin lotion with 1.0% fragrance (limonene 20%)
Excerpt: (§1) The stability of terpenoid components of typical fragrances was examined in skin care formulations containing 4-substituted resorcinol derivatives to determine the resorcinol's effectiveness toward preventing degradation and loss of terpenoid upon storage. Two terpenoid components, limonene and linalool, were formulated as part of a fragrance in standard skin care lotions containing BHT (a standard antioxidant), unsubstituted resorcinol, 4-ethyl resorcinol and 4-hexyl resorcinol. The stability of these fragrance components was measured using GC/HS analysis to determine the loss of each terpenoid molecule with time as stored under typical consumer product storage conditions storage (5-month storage at 40° C. and in the sun at Room Temperature [RT]). The loss of limonene and linalool in a standard formulation containing no “anti-oxidants” was directly compared to loss of these materials with both BHT, unsubstituted resorcinol and the 4-substituted resorcinol derivatives.
(§2) With reference to the data in the Tables below, GC/HS measurements were taken on an Agilent 6890 GC/5973 MS using a Gerstel MPS2 Headspace Sampler. The samples were incubated at 35° C. for one hour and then 2.50 mL of the headspace above the sample was injected onto a Agilent Technologies number 19091S-433, HP-5MS, 5% Phenyl Methyl Siloxane column which has a 30 m×0.25 mm ID with a 0.25 μm film thickness. The GC data is recorded as peak area count for the two fragrance components.
(§3) The formulations in the Table below were prepared in accordance with the method set forth in Example 1 hereinabove.

[2] = Storage stability of linalool in skin lotion, GC/HS; conditions: for initial GC/HS: skin lotion with 1.0% fragrance (linalool 20%)
Excerpt: as §1, §2, §3

[3] = Overall stabilization of terpenoid fragrance components in skin lotion; format: physicochemical; conditions: limonene and linalool in skin lotions, 5-month storage (sun RT, 40° C.)
Excerpt: In most cases, the “control” formulation without anti-oxidants or the control with the unsubstituted resorcinol lost twice as much limonene and/or linalool as those formulations containing the 4-substituted resorcinols.

[4] = 5-month storage in the sun at RT

Structure (SMILES)	40° C. 5-months GC/HS ([1]; 5-month storage at 40° C.)	40° C. % Loss ([1]; 5-month storage at 40° C.)	Sun 5-months GC/HS [1, 4]	Sun % Loss [1, 4]	initial GC/HS [1]	40° C. 5-months GC/HS ([2]; 5-month storage at 40° C.)	40° C. % Loss ([2]; 5-month storage at 40° C.)	Sun 5-months GC/HS [2, 4]	Sun % Loss [2, 4]	initial GC/HS [2]	40° C. % Stabilization ([1]; 5-month storage at 40° C.)	Sun % Stabilization [1, 4]	40° C. % Stabilization ([2]; 5-month storage at 40° C.)	Sun % Stabilization [2, 4]	stabilizing terpenoid molecules against degradation [3]
CCc1ccc(O)cc1O [4-EthylResorcinol, 4-ethyl resorcinol]	46790409 peak area count	12.9%	54753996 peak area count	0%	54736538 peak area count	2292953 peak area count	30.2%	2650924 peak area count	19.4%	3288967 peak area count	–	–	–	–	–
CCCCCCc1ccc(O)cc1O [4-HexylResorcinol, 4-hexyl resorcinol]	3381932 peak area count	18.5%	34662250 peak area count	7.7%	40778538 peak area count	1466948 peak area count	10.2%	1666185 peak area count	7.5%	2222930 peak area count	–	–	–	–	–
Cc1cc(C(C)(C)C)c(O)c(C(C)(C)C)c1 [BHT Sample, BHT]	26286287 peak area count	31.7%	32465677 peak area count	15.3%	38342803 peak area count	4918953 peak area count	28.2%	4678449 peak area count	31.4%	6853529 peak area count	35%	48%	29%	16.5%	–
Oc1cccc(O)c1 [Resorcinol]	19260141 peak area count	57.6%	25743642 peak area count	43.4%	45478209 peak area count	4286137 peak area count	29.6%	3856563 peak area count	36.7%	6088780 peak area count	–	–	–	–	little to no stabilization
